For one assay, the target named is T1, BRD4 (BDI_K57-E168) (Homo sapiens, UniProt O60885).
T1 construct: BD1: amino acids K57-E168; made in house
As to the kind of experiment: TR-FRET bromodomain binding assay, BRD4 first bromodomain. As to conditions: His-tagged BD1, 100 nM Alexa647 probe; Ki calculated from IC50; dilution protocol A-G. On the procedure:
(§1) A time-resolved fluorescence resonance energy transfer (TR-FRET) assay was used to determine the affinities of compounds of the Examples listed in Table 1 for each bromodomain of BRD4. His-tagged first (BD1: amino acids K57-E168) and second (BD2: amino acids E352-E168) bromodomains of BRD4 were expressed and purified. An Alexa647-labeled BET-inhibitor was used as the fluorescent probe in the assay.
(§2) Compound dilution series were prepared in DMSO via an approximately 3-fold serial dilution from one of the following: • Assay method A: 2.5 mM-800 nM • Assay method B: 2.5 mM-797 nM • Assay method C: 1250 μM-21 nM • Assay method D: 500 μM-8.5 nM • Assay method E: 0.47 mM to 7.8 nM • Assay method F: 250 μM-4.2 nM • Assay method G: 0.047 mM to 0.78 nM or 5-fold serial dilution from Assay Method A or Assay Method B.
(§3) For Assay methods A, C, D, and F: Compounds were then diluted 6:100 in assay buffer (20 mM Sodium Phosphate, pH 6.0, 50 mM NaCl, 1 mM Ethylenediaminetetraacetic acid, 0.01% Triton X-100, 1 mM DL-Dithiothreitol) to yield 3× working solutions. Six microliters (μL) of the working solution was then transferred to white, low-volume assay plates (Costar #3673). A 1.5× assay mixture containing His-tagged bromodomain, Europium-conjugated anti-His antibody (Invitrogen PV5596) and the Alexa-647-conjugated probe molecule was also prepared. Twelve μL of this solution were added to the assay plate to reach a final volume of 18 μL.
(§4) For Assay methods B, E, and G: Compound dilutions were added directly into white, low-volume assay plates (Perkin Elmer Proxiplate 384 Plus#6008280) using a Labcyte Echo in conjunction with Labcyte Access and Thermo Multidrop CombinL robotics. Compounds were then suspended in eight microliters (μL) of assay buffer (20 mM Sodium Phosphate, pH 6.0, 50 mM NaCl, 1 mM Ethylenediaminetetraacetic acid disodium salt dihydrate, 0.01% Triton X-100, 1 mM DL-Dithiothreitol) containing His-tagged bromodomain, Europium-conjugated anti-His antibody (Invitrogen PV5596) and Alexa-647-conjugated probe.
(§5) The final concentration of 1× assay mixture for assay methods A, B, C, D, E, F, and G contains 2% DMSO, 8 nM His-tagged bromodomain, 1 nM Europium-conjugated anti-His-tag antibody and 100 nM or 30 nM probe (for BDI or BDII, respectively) and compound concentration in the range of: 50 μM-16 nM for method A, 49.02 μM-15.63 nM for method B, 25 μM-423 pM for method C, 10 μM-169 pM for method D, 9.19 μM-150 pM for method E, 5 μM-85 pM for method F, and 0.92 μM-15 pM for method G.
(§6) After a one-hour equilibration at room temperature, TR-FRET ratios were determined using an Envision multilabel plate reader (Ex 340, Em 495/520).
(§7) TR-FRET data were normalized to the means of 24 no-compound controls (“high”) and 8 controls containing 1 μM un-labeled probe (“low”). Percent inhibition was plotted as a function of compound concentration and the data were fit with the 4 parameter logistic equation to obtain IC50s Inhibition constants (Ki) were calculated from the IC50s, probe Kd and probe concentration. Typical Z′ values were between 0.65 and 0.75. The minimum significant ratio was determined to evaluate assay reproducibility (Eastwood et al., (2006) J Biomol Screen, 11: 253-261). The MSR was determined to be 2.03 for BDI and 1.93 for BDII, and a moving MSR (last six run MSR overtime) for both BDI and BDII was typically <3.

A further assay deals with T2, BRD4 (BDII_E352-M457) (Homo sapiens, UniProt O60885).
T2 construct: made in house
Kind of assay: TR-FRET bromodomain binding assay, BRD4 second bromodomain. How it is done: as §1, §2, §3, §4, §5, §6, §7
Background: Time-resolved FRET reads energy transfer from a long-lived donor to a nearby acceptor.

The subject of assay [1] is breast cancer cell line MX-1. Kind of assay: MX-1 cell line proliferation assay (3-day, Cell Titer Glo). Type of assay: cell-based. As to conditions: Homo sapiens, MX1, MX-1 cells, 72 h, top concentration 3 μM, read-out: Cellular proliferation: EC50. How it is done: The impact of compounds of the Examples on cancer cell proliferation was determined using the breast cancer cell line MX-1 (ATCC) in a 3-day proliferation assay and the data are reported in Table 1. MX-1 cells were maintained in RPMI 1640 medium (Sigma) supplemented with 10% FBS at 37 C.° and an atmosphere of 5% CO2. For compound testing, MX-1 cells were plated in 96-well black bottom plates at a density of 5000 cells/well in 90 μL of culture media and incubated at 37° overnight to allow cell adhesion and spreading. Compound dilution series were prepared in DMSO via a 3-fold serial dilution from 3 mM to 0.1 μM. The DMSO dilution series were then diluted 1:100 in phosphate buffered saline, and 10 μL of the resulted solution were added to the appropriate wells of the MX-1 cell plate. The final compound concentrations in the wells were 3, 1, 0.3, 0.1, 0.03, 0.01, 0.003, 0.001, 0.0003 and 0.0001 μM.
Luminescence readings from the Cell Titer Glo assay were normalized to the DMSO treated cells and analyzed using the GraphPad Prism software with sigmoidal curve fitting to obtain EC50s. The minimum significant ratio (MSR) was determined to evaluate assay reproducibility (Eastwood et al., (2006) J Biomol Screen, 11: 253-261).

For orientation: Ki means the dissociation constant of the complex between target and ligand, obtained from inhibition or displacement. `COC(=O)c1cc2c(-c3ccccc3Oc3ccccc3)[nH]c(C)c2c(=O)[nH]1` [Example 1, methyl 3-methyl-4-oxo-1-(2-phenoxyphenyl)-4,5-dihydro-2H-pyrrolo[3,4-c]pyridine-6-carboxylate]: the Ki is 3.04 nM at BRD4 (BDI_K57-E168) and 24.6 nM on BRD4 (BDII_E352-M457). Also, in assay [1], the EC50 is 67 nM.
For `COC(=O)c1cc2c(-c3cc(NS(C)(=O)=O)ccc3Oc3ccccc3)[nH]c(C)c2c(=O)[nH]1` [Example 3, methyl 3-methyl-1-(5-(methylsulfonamido)-2-phenoxyphenyl)-4-oxo-4,5-dihydro-2H-pyrrolo[3,4-c]pyridine-6-carboxylate], the Ki on BRD4 (BDI_K57-E168) was 3.33 nM; at BRD4 (BDII_E352-M457), 19.8 nM. For the same compound, in assay [1], the EC50 was 41.5 nM.
In the case of `CCOC(=O)c1cc2c(-c3cc(N)ccc3Oc3ccc(F)cc3F)[nH]c(C)c2c(=O)[nH]1` [Example 4, ethyl 1-[5-amino-2-(2,4-difluorophenoxy)phenyl]-3-methyl-4-oxo-4,5-dihydro-2H-pyrrolo[3,4-c]pyridine-6-carboxylate], the Ki on BRD4 (BDI_K57-E168) is 12.3 nM; on BRD4 (BDII_E352-M457), 91.3 nM. The EC50 in assay [1] is 77.6 nM.
For the compound `CCOC(=O)c1cc2c(-c3cc(NS(C)(=O)=O)ccc3Oc3ccccc3)[nH]c(C)c2c(=O)[nH]1` [Example 5, ethyl 3-methyl-1-(5-(methylsulfonamido)-2-phenoxyphenyl)-4-oxo-4,5-dihydro-2H-pyrrolo[3,4-c]pyridine-6-carboxylate], the Ki at BRD4 (BDI_K57-E168) was 1.44 nM; on BRD4 (BDII_E352-M457), 9.51 nM. Moreover, in assay [1], the EC50 was determined as 47.3 nM.
For `CCOC(=O)c1cc2c(-c3cc(NS(=O)(=O)CC)ccc3Oc3ccccc3)[nH]c(C)c2c(=O)[nH]1` [Example 6, ethyl 1-(5-(ethylsulfonamido)-2-phenoxyphenyl)-3-methyl-4-oxo-4,5-dihydro-2H-pyrrolo[3,4-c]pyridine-6-carboxylate] the same measures were 1.23 nM, 3.31 nM and 32.9 nM.
As for `CCS(=O)(=O)Nc1ccc(Oc2ccccc2)c(-c2[nH]c(C)c3c(=O)[nH]c(C(=O)OC)cc23)c1` [Example 7, methyl 1-(5-(ethylsulfonamido)-2-phenoxyphenyl)-3-methyl-4-oxo-4,5-dihydro-2H-pyrrolo[3,4-c]pyridine-6-carboxylate], the Ki at BRD4 (BDI_K57-E168) is 2.15 nM; at BRD4 (BDII_E352-M457), 15.9 nM. Further, the EC50 in assay [1] turned out to be 25.7 nM.
For `CCOC(=O)c1cc2c(-c3ccc(-c4cc(C)n[nH]4)cc3)[nH]c(C)c2c(=O)[nH]1` [Example 8, ethyl 3-methyl-1-[4-(3-methyl-1H-pyrazol-5-yl)phenyl]-4-oxo-4,5-dihydro-2H-pyrrolo[3,4-c]pyridine-6-carboxylate] the same measures were 95.6 nM, 615 nM and 737 nM.
Take `CCOC(=O)c1cc2c(-c3cc(NS(C)(=O)=O)ccc3Oc3ccc(F)cc3F)[nH]c(C)c2c(=O)[nH]1` [Example 9, ethyl 1-{2-(2,4-difluorophenoxy)-5-[(methylsulfonyl)amino]phenyl}-3-methyl-4-oxo-4,5-dihydro-2H-pyrrolo[3,4-c]pyridine-6-carboxylate]: the figures for the Ki on BRD4 (BDI_K57-E168) and on BRD4 (BDII_E352-M457) were 3.41 nM and 29.3 nM, respectively. The EC50 in assay [1] was 71.6 nM.
For the compound `CCOC(=O)c1cc2c(-c3cc(NS(=O)(=O)CC)ccc3Oc3ccc(F)cc3F)[nH]c(C)c2c(=O)[nH]1` [Example 10, ethyl 1-(2-(2,4-difluorophenoxy)-5-(ethylsulfonamido)phenyl)-3-methyl-4-oxo-4,5-dihydro-2H-pyrrolo[3,4-c]pyridine-6-carboxylate], the figures for the Ki at BRD4 (BDI_K57-E168) and on BRD4 (BDII_E352-M457) were 1.46 nM and 8.61 nM, respectively. For the same compound, in assay [1], the EC50 came out at 57.4 nM.
As for `Cc1[nH]c(-c2ccccc2Oc2ccccc2)c2cc(C(N)=O)[nH]c(=O)c12` [Example 11, 3-methyl-4-oxo-1-(2-phenoxyphenyl)-4,5-dihydro-2H-pyrrolo[3,4-c]pyridine-6-carboxamide], the Ki is 4.31 nM on BRD4 (BDI_K57-E168) and 11.9 nM at BRD4 (BDII_E352-M457). For the same compound, in assay [1], the EC50 is 31.7 nM.
Turning to `CNC(=O)c1cc2c(-c3ccccc3Oc3ccccc3)[nH]c(C)c2c(=O)[nH]1` [Example 13, N,3-dimethyl-4-oxo-1-(2-phenoxyphenyl)-4,5-dihydro-2H-pyrrolo[3,4-c]pyridine-6-carboxamide], the Ki on BRD4 (BDI_K57-E168) was 4.38 nM; on BRD4 (BDII_E352-M457), 14.1 nM. Also, the EC50 in assay [1] is 23.4 nM.
As for `Cc1[nH]c(-c2ccccc2Oc2ccccc2)c2cc(C(=O)N3CCOCC3)[nH]c(=O)c12` [Example 15, 3-methyl-6-(morpholine-4-carbonyl)-1-(2-phenoxyphenyl)-2H-pyrrolo[3,4-c]pyridin-4(5H)-one], the Ki on BRD4 (BDI_K57-E168) was 105 nM; on BRD4 (BDII_E352-M457), 307 nM. The EC50 in assay [1] amounted to 1120 nM.
For `Cc1[nH]c(-c2ccccc2Oc2ccccc2)c2cc(C(=O)N3CCN(C)CC3)[nH]c(=O)c12` [Example 16, 3-methyl-6-(4-methylpiperazine-1-carbonyl)-1-(2-phenoxyphenyl)-2H-pyrrolo[3,4-c]pyridin-4(5H)-one] the same measures were 32.7 nM, 170 nM and 616 nM.
`Cc1[nH]c(-c2ccccc2Oc2ccccc2)c2cc(C(=O)Nc3ccc(CN4CCN(C)CC4)cc3)[nH]c(=O)c12` [Example 17, 3-methyl-N-(4-((4-methylpiperazin-1-yl)methyl)phenyl)-4-oxo-1-(2-phenoxyphenyl)-4,5-dihydro-2H-pyrrolo[3,4-c]pyridine-6-carboxamide]: the Ki on BRD4 (BDI_K57-E168) was 27.7 nM; at BRD4 (BDII_E352-M457), 2.29 nM. Besides, the EC50 in assay [1] stood at 177 nM.
In the case of `Cc1[nH]c(-c2ccccc2Oc2ccccc2)c2cc(CO)[nH]c(=O)c12` [Example 18, 6-(hydroxymethyl)-3-methyl-1-(2-phenoxyphenyl)-2H-pyrrolo[3,4-c]pyridin-4(5H) one], the Ki on BRD4 (BDI_K57-E168) was 15.1 nM; at BRD4 (BDII_E352-M457), 31.6 nM. Moreover, the EC50 in assay [1] stood at 90.1 nM.
`Cc1[nH]c(-c2cc(NS(C)(=O)=O)ccc2Oc2ccc(F)cc2F)c2cc(C(N)=O)[nH]c(=O)c12` [Example 19, 1-(2-(2,4-difluorophenoxy)-5-(methylsulfonamido)phenyl)-3-methyl-4-oxo-4,5-dihydro-2H-pyrrolo[3,4-c]pyridine-6-carboxamide]: the inhibition constant Ki is 1.66 nM at BRD4 (BDI_K57-E168) and 6.08 nM at BRD4 (BDII_E352-M457). Also, in assay [1], the EC50 turned out to be 270 nM.
With `Cc1[nH]c(-c2ccccc2Oc2ccccc2)c2cc(-c3nc(-c4ccncc4)no3)[nH]c(=O)c12` [Example 45, 3-methyl-1-(2-phenoxyphenyl)-6-(3-(pyridin-4-yl)-1,2,4-oxadiazol-5-yl)-2H-pyrrolo[3,4-c]pyridin-4(5H)-one], the Ki at BRD4 (BDI_K57-E168) was 10.5 nM. Also, the EC50 in assay [1] came out at 180 nM.

The values are drawn from US9050346B2, “Bromodomain inhibitors” (AbbVie Inc., priority 2013, dated 2015).
